Structures are written as SMILES.

One assay deals with Melanocortin receptor 3 (Homo sapiens, UniProt P41968).
The target of a further assay is Vasopressin V2 receptor (Homo sapiens, UniProt P30518).
Assay [1] addresses 5-hydroxytryptamine receptor 2A (Homo sapiens, UniProt P28223). Type of assay: functional, cell-based.
Another assay concerns the target T1, Adenosine receptor A3 (Homo sapiens, UniProt P0DMS8).
T1 sequence (P0DMS8 whole entry): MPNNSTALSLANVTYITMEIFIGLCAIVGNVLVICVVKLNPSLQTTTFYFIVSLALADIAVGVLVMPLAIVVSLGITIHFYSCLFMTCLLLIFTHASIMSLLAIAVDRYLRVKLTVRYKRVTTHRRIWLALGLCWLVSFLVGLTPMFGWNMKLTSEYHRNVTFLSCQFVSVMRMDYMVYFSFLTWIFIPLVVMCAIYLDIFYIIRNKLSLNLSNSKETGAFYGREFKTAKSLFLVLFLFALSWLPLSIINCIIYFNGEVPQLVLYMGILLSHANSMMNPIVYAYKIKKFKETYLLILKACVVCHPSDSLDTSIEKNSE

A further assay concerns the target T2, Thromboxane A2 receptor (Homo sapiens, UniProt P21731).
T2 sequence (P21731 whole entry): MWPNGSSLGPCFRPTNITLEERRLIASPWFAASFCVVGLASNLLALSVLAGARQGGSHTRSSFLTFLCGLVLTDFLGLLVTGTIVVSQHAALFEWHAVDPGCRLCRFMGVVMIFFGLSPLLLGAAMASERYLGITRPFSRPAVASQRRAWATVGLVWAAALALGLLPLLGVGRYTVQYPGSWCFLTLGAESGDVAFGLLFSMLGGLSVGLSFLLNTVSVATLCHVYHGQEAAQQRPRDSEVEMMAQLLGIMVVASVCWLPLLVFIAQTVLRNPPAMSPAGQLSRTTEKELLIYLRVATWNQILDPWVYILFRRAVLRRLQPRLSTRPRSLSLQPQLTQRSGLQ

In assay [2] the target is Beta-2 adrenergic receptor (Homo sapiens, UniProt P07550).
Assay [3] concerns the target Growth hormone secretagogue receptor type 1 (Homo sapiens, UniProt Q92847).
The target in a further assay is T3, Progesterone receptor (Homo sapiens, UniProt P06401).
T3 sequence (P06401 whole entry): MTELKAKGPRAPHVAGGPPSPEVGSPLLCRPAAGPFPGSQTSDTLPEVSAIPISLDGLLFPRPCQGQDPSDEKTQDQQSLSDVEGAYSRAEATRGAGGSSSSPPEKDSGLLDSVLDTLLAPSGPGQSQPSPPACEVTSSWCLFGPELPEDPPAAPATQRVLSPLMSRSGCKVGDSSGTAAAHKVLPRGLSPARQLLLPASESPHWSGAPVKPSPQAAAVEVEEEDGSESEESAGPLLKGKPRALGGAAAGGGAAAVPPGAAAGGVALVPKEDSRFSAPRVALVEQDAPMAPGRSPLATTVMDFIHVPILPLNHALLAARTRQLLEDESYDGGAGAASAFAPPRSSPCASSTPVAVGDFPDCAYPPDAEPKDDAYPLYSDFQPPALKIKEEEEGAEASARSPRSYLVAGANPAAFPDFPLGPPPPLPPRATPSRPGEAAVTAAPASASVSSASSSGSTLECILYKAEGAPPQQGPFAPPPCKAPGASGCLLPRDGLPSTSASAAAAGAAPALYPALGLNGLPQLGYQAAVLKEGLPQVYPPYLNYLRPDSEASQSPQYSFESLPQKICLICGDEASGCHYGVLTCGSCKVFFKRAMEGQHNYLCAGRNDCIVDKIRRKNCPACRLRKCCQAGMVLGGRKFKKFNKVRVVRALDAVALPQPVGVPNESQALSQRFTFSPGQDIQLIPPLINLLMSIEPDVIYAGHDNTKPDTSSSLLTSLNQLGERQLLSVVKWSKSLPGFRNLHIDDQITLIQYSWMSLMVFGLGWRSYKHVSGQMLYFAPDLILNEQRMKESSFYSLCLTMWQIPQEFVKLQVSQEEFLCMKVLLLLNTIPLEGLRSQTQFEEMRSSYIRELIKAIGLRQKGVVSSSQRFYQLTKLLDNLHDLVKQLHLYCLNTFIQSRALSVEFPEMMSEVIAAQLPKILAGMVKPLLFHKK
The assay is classed as functional.

In assay [4] the target is T4, Alpha-2B adrenergic receptor (Homo sapiens, UniProt P18089).
T4 sequence (P18089 whole entry): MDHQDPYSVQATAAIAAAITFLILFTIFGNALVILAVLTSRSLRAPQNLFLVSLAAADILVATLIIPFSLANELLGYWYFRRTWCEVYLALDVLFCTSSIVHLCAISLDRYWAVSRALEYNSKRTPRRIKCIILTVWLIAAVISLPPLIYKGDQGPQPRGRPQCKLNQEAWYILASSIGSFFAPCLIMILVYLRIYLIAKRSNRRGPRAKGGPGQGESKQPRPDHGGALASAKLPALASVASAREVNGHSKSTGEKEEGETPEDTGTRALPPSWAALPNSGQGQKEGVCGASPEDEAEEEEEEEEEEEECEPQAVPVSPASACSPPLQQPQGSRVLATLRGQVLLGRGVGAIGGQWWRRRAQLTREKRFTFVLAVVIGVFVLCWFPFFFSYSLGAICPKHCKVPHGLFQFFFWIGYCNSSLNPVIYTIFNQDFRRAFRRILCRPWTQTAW

Assay [5] deals with T5, 5-hydroxytryptamine receptor 1A (Homo sapiens, UniProt P08908).
T5 sequence (P08908 whole entry): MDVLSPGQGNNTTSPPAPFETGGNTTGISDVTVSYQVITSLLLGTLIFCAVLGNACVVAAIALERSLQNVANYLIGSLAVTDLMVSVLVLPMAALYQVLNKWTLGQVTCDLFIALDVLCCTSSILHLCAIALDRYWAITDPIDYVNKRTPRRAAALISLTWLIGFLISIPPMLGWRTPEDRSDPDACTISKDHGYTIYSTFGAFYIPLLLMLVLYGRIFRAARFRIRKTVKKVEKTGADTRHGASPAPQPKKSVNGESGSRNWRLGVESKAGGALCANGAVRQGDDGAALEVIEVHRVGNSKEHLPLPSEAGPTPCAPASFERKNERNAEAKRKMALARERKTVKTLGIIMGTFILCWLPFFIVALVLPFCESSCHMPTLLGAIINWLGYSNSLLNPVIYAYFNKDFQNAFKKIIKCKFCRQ
The assay is classed as functional, cell-based.
Further: assay procedure not described here.

Chain of Growth hormone secretagogue receptor type 1 (Q92847 whole entry): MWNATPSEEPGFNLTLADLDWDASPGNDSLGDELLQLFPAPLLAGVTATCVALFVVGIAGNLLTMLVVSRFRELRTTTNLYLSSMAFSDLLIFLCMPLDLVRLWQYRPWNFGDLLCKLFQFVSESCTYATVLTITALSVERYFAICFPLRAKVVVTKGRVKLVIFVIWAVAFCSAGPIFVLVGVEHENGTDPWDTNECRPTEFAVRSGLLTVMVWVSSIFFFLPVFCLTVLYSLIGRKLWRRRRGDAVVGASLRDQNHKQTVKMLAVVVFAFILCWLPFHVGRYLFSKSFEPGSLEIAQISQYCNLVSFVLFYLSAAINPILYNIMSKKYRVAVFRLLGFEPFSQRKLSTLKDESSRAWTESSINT
Chain of Melanocortin receptor 3 (P41968 whole entry): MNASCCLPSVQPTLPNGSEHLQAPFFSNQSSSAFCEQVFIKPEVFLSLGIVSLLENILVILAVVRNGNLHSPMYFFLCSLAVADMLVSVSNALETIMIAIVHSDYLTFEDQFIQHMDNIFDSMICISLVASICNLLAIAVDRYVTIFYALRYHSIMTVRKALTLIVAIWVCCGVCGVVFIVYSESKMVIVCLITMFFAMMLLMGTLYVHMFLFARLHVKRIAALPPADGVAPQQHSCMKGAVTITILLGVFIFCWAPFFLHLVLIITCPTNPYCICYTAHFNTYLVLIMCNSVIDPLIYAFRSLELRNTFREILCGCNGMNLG
Chain of 5-hydroxytryptamine receptor 2A (P28223 whole entry): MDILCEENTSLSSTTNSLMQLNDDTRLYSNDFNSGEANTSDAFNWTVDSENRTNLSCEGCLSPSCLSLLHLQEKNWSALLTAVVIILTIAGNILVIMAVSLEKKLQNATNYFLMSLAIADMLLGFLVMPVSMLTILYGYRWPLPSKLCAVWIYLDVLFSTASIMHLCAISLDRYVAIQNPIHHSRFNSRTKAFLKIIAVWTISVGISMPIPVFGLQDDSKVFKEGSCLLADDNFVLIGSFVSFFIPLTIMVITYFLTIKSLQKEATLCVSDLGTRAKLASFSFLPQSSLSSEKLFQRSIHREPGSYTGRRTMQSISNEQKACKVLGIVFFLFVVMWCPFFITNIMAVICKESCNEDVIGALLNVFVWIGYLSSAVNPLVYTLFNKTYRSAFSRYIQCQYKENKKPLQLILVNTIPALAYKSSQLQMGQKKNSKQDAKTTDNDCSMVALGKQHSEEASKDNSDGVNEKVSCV
Chain of Vasopressin V2 receptor (P30518 whole entry): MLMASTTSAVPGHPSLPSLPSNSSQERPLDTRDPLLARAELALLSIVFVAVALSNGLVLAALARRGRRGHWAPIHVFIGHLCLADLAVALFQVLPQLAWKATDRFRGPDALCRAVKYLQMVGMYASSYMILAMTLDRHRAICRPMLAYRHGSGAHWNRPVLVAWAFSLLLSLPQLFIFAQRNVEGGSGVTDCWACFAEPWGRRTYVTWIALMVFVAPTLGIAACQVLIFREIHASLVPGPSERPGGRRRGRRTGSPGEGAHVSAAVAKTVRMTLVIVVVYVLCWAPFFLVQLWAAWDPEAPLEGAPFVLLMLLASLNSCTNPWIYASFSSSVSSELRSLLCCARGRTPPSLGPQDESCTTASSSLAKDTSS
Chain of Beta-2 adrenergic receptor (P07550 whole entry): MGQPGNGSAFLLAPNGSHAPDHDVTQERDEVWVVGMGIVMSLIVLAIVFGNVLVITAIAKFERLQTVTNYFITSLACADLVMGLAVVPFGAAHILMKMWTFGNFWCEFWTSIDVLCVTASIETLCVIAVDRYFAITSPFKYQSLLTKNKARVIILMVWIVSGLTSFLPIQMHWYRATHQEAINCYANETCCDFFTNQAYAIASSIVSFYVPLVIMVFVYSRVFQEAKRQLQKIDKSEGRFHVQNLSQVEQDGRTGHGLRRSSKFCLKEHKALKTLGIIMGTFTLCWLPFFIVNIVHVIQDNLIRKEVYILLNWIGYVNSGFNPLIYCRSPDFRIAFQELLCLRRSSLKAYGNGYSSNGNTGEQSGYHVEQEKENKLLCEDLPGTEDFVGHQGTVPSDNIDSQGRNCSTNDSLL

As to `Cc1nc2ccc(CN(C)c3ccc(C(=O)N[C@@H](CCC(=O)O)C(=O)O)s3)cc2c(=O)[nH]1` [RALTITREXED], the AC50 (on Melanocortin receptor 3; on Vasopressin V2 receptor; in assay [1]; on Adenosine receptor A3; on Thromboxane A2 receptor; in [2]) was over 30 µM each time. The AC50 (in [3]; at Progesterone receptor; in assay [4]) was over 30 µM each time.
Regarding `O=C(O)Cc1cn(-c2ccccc2)nc1-c1ccc(Cl)cc1` [LONAZOLAC], the AC50 (on Melanocortin receptor 3; on Vasopressin V2 receptor; in assay [1]; on Adenosine receptor A3; on Thromboxane A2 receptor; in assay [2]) was over 30 µM in each case. Further, the AC50 (in [3]; on Progesterone receptor; in [4]) was over 30 µM in each case.
Turning to `CCCC(CCC)C(=O)O[C@H]1C[C@H]2CC[C@@H](C1)[N+]2(C)C` [ANISOTROPINE], the AC50 (at Melanocortin receptor 3; at Vasopressin V2 receptor; in [1]; on Adenosine receptor A3; on Thromboxane A2 receptor; in assay [3]) was over 30 µM in each case. Moreover, the AC50 (on Progesterone receptor; in assay [4]) was over 30 µM in each case.
As to `CCCCCCCCCCCC[N+](C)(C)CCOc1ccccc1` [DOMIPHEN], the AC50 at Vasopressin V2 receptor was 7.3 µM; in [1] it was 0.94 µM; at Adenosine receptor A3 it was 10 µM; at Thromboxane A2 receptor it was over 30 µM; in assay [2], 15 µM; in [3] it was 5.7 µM. Also, the AC50 was over 30 µM on Progesterone receptor and 3.8 µM in [4].
Consider `CCCCCCCCOc1ccccc1C(=O)Nc1ccc(C(=O)OCC[N+](C)(CC)CC)cc1` [OTILONIUM BROMIDE], for which the AC50 at Melanocortin receptor 3 was 5.1 µM; at Vasopressin V2 receptor, 9.9 µM; in assay [1], 3.9 µM; on Adenosine receptor A3, 5.3 µM; at Thromboxane A2 receptor it was over 30 µM; in [2] it was 11 µM. In addition, the AC50 is 7.6 µM in assay [3], over 30 µM at Progesterone receptor and 2.9 µM in [4].
Regarding `CCOc1cc(N)c([N+](=O)[O-])cc1C(=O)NC1CCN(CC2CC=CCC2)CC1` (centres undefined) [CINITAPRIDE], the AC50 on Melanocortin receptor 3 is over 30 µM; on Vasopressin V2 receptor it was over 30 µM; in assay [1] it was 0.07 µM; on Adenosine receptor A3, over 30 µM; at Thromboxane A2 receptor it was over 30 µM; in assay [2] it was 16 µM. In addition, the AC50 in [3] was over 30 µM; at Progesterone receptor, over 30 µM; in [4], 9.3 µM.
With `CCC1(C2=CCCCCC2)C(=O)NC(=O)NC1=O` [HEPTABARBITAL], the AC50 (at Melanocortin receptor 3; on Vasopressin V2 receptor; in assay [1]; on Adenosine receptor A3; on Thromboxane A2 receptor; in assay [2]) was over 10 µM each time. Besides, the AC50 (in assay [3]; at Progesterone receptor; in assay [4]) was over 10 µM throughout.
For `COc1ccc(C(=O)N2CCN(c3ccc4c(c3)CCC(=O)N4)CC2)cc1OC` [VESNARINONE], the half-maximal activity concentration (AC50) (at Melanocortin receptor 3; at Vasopressin V2 receptor; in assay [1]; on Adenosine receptor A3; on Thromboxane A2 receptor; in assay [2]) was over 30 µM in each case. Further, the AC50 in assay [3] is over 30 µM; on Progesterone receptor it was 12 µM; in assay [4] it was over 30 µM.
On to `COc1ccc(C(=O)NCc2ccc(OCCN(C)C)cc2)cc1OC` [ITOPRIDE], for which the AC50 (on Melanocortin receptor 3; at Vasopressin V2 receptor; in [1]; on Adenosine receptor A3; at Thromboxane A2 receptor; in assay [2]) was over 30 µM throughout. Moreover, the AC50 (in assay [3]; at Progesterone receptor; in assay [4]) was over 30 µM in each case.
Regarding `CCOC(=O)[C@H](CCc1ccccc1)N[C@H]1CCCN2CCC[C@@H](C(=O)O)N2C1=O` [CILAZAPRIL], the AC50 (on Melanocortin receptor 3; at Vasopressin V2 receptor; in [1]; at Adenosine receptor A3; at Thromboxane A2 receptor; in assay [2]) was over 30 µM each time. Further, the AC50 (in assay [3]; at Progesterone receptor; in assay [4]) was over 30 µM in each case.
On to `Nc1ncnc2c1ncn2[C@@H]1O[C@H](COP(=O)(O)O)[C@@H](O)[C@H]1O` [ADENOSINE PHOSPHATE], for which the AC50 (on Melanocortin receptor 3; at Vasopressin V2 receptor; in assay [1]; on Adenosine receptor A3; at Thromboxane A2 receptor; in assay [2]) was over 30 µM in each case. Also, the AC50 (in assay [3]; at Progesterone receptor; in assay [4]) was over 30 µM in each case.
Regarding `CN1C(=O)CC(c2ccccc2)C1=O` (centres undefined) [PHENSUXIMIDE], the AC50 (at Melanocortin receptor 3; at Vasopressin V2 receptor; in assay [1]; on Adenosine receptor A3; at Thromboxane A2 receptor; in assay [2]) was over 10 µM in each case. The AC50 (in assay [3]; at Progesterone receptor; in assay [4]) was over 10 µM throughout.
As for `NC(CO)C(=O)NNCc1ccc(O)c(O)c1O` (centres undefined) [BENSERAZIDE], the AC50 on Melanocortin receptor 3 is over 30 µM; at Vasopressin V2 receptor, over 30 µM; in assay [1] it was over 30 µM; on Adenosine receptor A3, 21.6 µM; at Thromboxane A2 receptor, over 30 µM; in assay [5], over 10 µM. Also, the AC50 is over 10 µM in assay [2], over 30 µM in [3] and over 10 µM in assay [4].
In the case of `C1COC(NC(C2CC2)C2CC2)=N1` [RILMENIDINE], the AC50 (at Melanocortin receptor 3; on Vasopressin V2 receptor; in [1]; at Adenosine receptor A3; on Thromboxane A2 receptor; in assay [5]) was over 30 µM in each case. Also, the values for the AC50 in assay [2], in assay [3] and in assay [4] were over 10 µM, over 30 µM and 7.5 µM, respectively.

The record behind these values is ChEMBL document CHEMBL5291721, “A preclinical secondary pharmacology resource illuminates target-adverse drug reaction associations of marketed drugs” (Nat Commun, 2023).
